How the values were obtained:
MMP-1 = target: T1, MMP-1 (Homo sapiens, UniProt P03956); assay: MMP-1 inhibition (thiopeptide or fluorescent peptide substrate); assay type: biochemical
T1 sequence (P03956 100-469): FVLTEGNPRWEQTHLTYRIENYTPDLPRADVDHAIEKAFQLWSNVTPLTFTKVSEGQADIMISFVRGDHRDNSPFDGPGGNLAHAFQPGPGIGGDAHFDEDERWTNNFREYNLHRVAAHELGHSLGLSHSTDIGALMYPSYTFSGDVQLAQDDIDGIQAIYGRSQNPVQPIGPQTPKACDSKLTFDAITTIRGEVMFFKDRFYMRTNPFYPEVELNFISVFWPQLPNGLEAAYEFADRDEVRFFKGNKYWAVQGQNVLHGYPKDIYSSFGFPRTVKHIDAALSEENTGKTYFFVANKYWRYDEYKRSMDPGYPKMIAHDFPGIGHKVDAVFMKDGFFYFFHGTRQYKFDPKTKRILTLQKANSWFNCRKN
Description: (§1) The enzyme activity is measured by the rate of the color increase. The thiopeptide substrate is made up fresh as a 20 mM stock in 100% DMSO and the DTNB is dissolved in 100% DMSO as a 100 mM stock and stored in the dark at room temperature. Both the substrate and DTNB are diluted together to 1 mM with substrate buffer (50 mM HEPES pH 7.5, 5 mM CaCl2) before use. The stock of enzyme is diluted with buffer (50 mM HEPES, pH 7.5, 5 mM CaCl2, 0.02% Brij) to the desired final concentration.
(§2) Alternatively, a fluorescent peptide substrate is used. In this test procedure, the peptide substrate contains a fluorescent group and a quenching group. Upon cleavage of the substrate by an MMP, the fluorescence that is generated is quantitated on the fluorescence plate reader. The assay is run in HCBC assay buffer (50 mM HEPES, pH 7.0, 5 mM Ca^+2, 0.02% Brij, 0.5% Cysteine), with human recombinant MMP-1, MMP-9, or MMP-13. The substrate is dissolved in methanol and stored frozen in 1 mM aliquots. For the assay, substrate and enzymes are diluted in HCBC buffer to the desired concentrations. […]
(§3) For either the thiopeptide or fluorescent peptide test procedures, the slope of the line is calculated and represents the reaction rate. […] The mean (x±sem) of the control rate is calculated and compared for statistical significance (p<0.05) with drug-treated rates using Dunnett's multiple comparison test.

MMP-9 = MMP-9 (Homo sapiens, UniProt P14780); assay: MMP-9 inhibition (thiopeptide or fluorescent peptide substrate); assay type: biochemical
Description: as §1, §2, §3

MMP-13 = MMP-13 (Homo sapiens, UniProt P45452); assay: MMP-13 inhibition (thiopeptide or fluorescent peptide substrate); assay type: biochemical
Description: as §1, §2, §3

[1] = target: TNF-α converting enzyme (TACE) (Homo sapiens, UniProt P78536); assay: TACE inhibition (fluorescent peptidyl substrate); assay type: biochemical
Description: Using 96-well black microtiter plates, each well receives a solution composed of 10 μL TACE (final concentration 1 μg/mL), 70 μL Tris buffer, pH 7.4 containing 10% glycerol (final concentration 10 mM), and 10 μL of test compound solution in DMSO (final concentration 1 μM, DMSO concentration <1%) and incubated for 10 minutes at room temperature. The reaction is initiated by addition of a fluorescent peptidyl substrate (final concentration 100 μM) to each well and then shaking on a shaker for 5 sec.
The reaction is read (excitation 340 nm, emission 420 nm) for 10 min. and the increase in fluorescence over time is plotted as a linear line. The slope of the line is calculated and represents the reaction rate.
The mean (x±sem) of the control rate is calculated and compared for statistical significance (p<0.05) with drug-treated rates using Dunnett's multiple comparison test.

THP-1 cells = assay: THP-1 soluble protein assay; assay type: cell-based, human; conditions: LPS-stimulated THP-1 cells
Excerpt: In addition, non-stimulated THP-1 cells shed both the p75/80 and the p55/60 receptors over time. The release of membrane bound TNF-α and possibly TNF-R p75/80 and TNF-R p55/60, but not IL-8, is mediated by an enzyme called TNF-a converting enzyme or TACE.
THP-1 cells (from ATCC) are a human monocytic cell line which were obtained from the peripheral blood of a person with acute monocytic leukemia. They can be grown in culture and differentiated into macrophage like cells by stimulation with mitogens.
Each vial of cells are cultured for about two weeks prior to being used for an assay and then are used for only 4 to 6 weeks to screen compounds.
Cell exposure to DMSO was limited to 0.1% final concentration. […] Compounds can be evaluated for their effect on basal (non-stimulated) shedding of the receptors by replacing the LPS with […] of THP-1 media. Plates are placed into an incubator set at 5% CO2 and at 37° C. […]
In addition, at the 24 hours timepoint, and the cells for each treatment group are collected by resuspension in 500 μl/well of THP-1 media and transferred into a FACS tube. […] The samples are run on a Becton Dickinson FaxCaliber FLOW cytometry machine and the amount of dye taken up by each cell is measured in the high red wavelength (FL3). […] The percent of live cells is calculated by the number of cells not stained with PI, divided by the total number of cells in the sample. […]

Sequence of MMP-9 (P14780 94-707): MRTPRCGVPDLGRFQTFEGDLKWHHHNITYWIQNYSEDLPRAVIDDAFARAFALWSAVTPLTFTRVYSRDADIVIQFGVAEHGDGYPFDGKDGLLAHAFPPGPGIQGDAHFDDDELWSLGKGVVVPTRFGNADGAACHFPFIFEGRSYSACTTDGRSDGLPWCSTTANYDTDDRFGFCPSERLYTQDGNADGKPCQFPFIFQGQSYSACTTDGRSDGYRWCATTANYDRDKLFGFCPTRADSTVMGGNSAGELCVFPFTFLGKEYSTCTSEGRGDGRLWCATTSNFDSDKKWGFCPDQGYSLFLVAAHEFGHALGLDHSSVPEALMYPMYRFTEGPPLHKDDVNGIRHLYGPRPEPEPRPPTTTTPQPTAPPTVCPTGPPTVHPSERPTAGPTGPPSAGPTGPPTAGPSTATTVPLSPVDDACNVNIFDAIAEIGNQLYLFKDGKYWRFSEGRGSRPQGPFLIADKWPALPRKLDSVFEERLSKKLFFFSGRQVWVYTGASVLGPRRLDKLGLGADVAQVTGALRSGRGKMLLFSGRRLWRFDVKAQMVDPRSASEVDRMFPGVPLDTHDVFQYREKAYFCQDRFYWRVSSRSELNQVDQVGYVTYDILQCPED
Sequence of TNF-α converting enzyme (TACE) (P78536 215-824, species assumed): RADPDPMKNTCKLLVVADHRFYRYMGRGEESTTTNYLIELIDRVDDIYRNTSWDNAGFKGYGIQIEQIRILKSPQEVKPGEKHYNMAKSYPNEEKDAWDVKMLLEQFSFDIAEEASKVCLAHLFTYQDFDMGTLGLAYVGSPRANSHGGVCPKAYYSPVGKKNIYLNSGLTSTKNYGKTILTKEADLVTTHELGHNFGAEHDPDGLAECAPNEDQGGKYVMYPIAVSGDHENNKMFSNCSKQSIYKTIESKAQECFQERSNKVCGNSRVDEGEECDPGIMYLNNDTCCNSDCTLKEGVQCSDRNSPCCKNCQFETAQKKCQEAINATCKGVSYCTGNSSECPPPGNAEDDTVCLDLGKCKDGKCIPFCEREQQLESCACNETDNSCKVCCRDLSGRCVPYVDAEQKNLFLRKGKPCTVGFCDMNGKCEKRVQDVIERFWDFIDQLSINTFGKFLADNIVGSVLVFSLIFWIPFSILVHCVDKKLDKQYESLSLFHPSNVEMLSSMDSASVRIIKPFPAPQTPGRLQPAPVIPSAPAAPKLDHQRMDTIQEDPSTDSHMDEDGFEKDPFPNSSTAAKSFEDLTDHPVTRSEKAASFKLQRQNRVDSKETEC

## 5-Bromo-2-[(4-butoxy-benzenesulfonyl)-methyl-amino]-N-hydroxy-3-methyl-benzamide [Example 39]
MMP-1
  IC50: 2.49 µM
MMP-9
  IC50: 0.021 µM
MMP-13
  IC50: 0.068 µM
[1]
  IC50: 0.067 µM
THP-1 cells
  THP % Inhib. @ 3 μM: 0%

Reference: patent publication US6762178B2, “Acetylenic aryl sulfonamide and phosphinic acid amide hydroxamic acid TACE inhibitors” (Wyeth Holdings Corporation, priority 1999, dated 2004)
